# Laboratory results from US8288548B2, “Oxazolo[5-4-b]pyridin-5-yl compounds” (Eli Lilly and Company, priority 2010, dated 2012).
# Marks after values point to notes of the source that are not given here.
# Columns and labels:
# [1] = system: A2780 human ovarian carcinoma cells; assay: A2780 xenograft model, tumor growth inhibition; type: in vivo, CD1 nu/nu mice; settings: 4 day on, 3 d off
# Method: (§1) Female CD1 nu/nu mice are obtained from Charles River Laboratories at approximately 22-25 g. After 1 week acclimation, 2×10^6 A2780 human ovarian carcinoma cells are injected subcutaneously in the rear flank of each mouse in a 0.2 mL volume in a 1:1 mixture of cell culture media and BD […]™ matrix. Tumor size is monitored by caliper measurement twice per week. When the average tumor size reaches 150 mm^3, animals are randomized into groups of 10. p38 MAP kinase inhibitor treatment is initiated after randomization. Example 2 is dosed orally in a 0.2 mL volume of 1% HEC, 0.25% TWEEN® 80, 0.05% antifoam (HEC/TWEEN®). The compound is dosed at doses of 1, 3, and 10 mg/kg. Dosing is performed three times per day (TID) on a schedule of 4 days on, 3 days off. Three cycles of dosing is performed. Tumor volume is monitored twice per week during the dosing period, and efficacy (tumor growth inhibition) is monitored relative to a vehicle control group (n=10 animals). At 1, 2 and 8 hours after the last p38 MAP kinase inhibitor dose, plasma is obtained from animals to determine the circulating levels of compound in the animals.
# [2] = Plasma concentration after last dose in the A2780 xenograft model; type: in vivo, CD1 nu/nu mice
# Method: as §1
# [3] = system: OPM-2 cells; assay: OPM-2 multiple myeloma xenograft model; type: in vivo, CB-17 SCID mice; settings: PO, BID
# Method: Female CB-17 SCID mice are obtained from Taconic at 20-22 g weight. After acclimating for one week, mice are irradiated with a dose of 2.5 Gray. Within 24 hours following irradiation, mice are injected sub-cutaneously in the rear flank with 1.0×10^7 OPM-2 cells in a 0.2 mL volume in a 1:1 mixture of cell culture media and BD […]™ matrix. Tumor size is monitored by caliper measurement twice per week. When the tumor size reaches 100-150 mm^3, animals are randomized into dose groups. Compound treatment is initiated after randomization. Example 2 is dosed orally in a 0.2 mL volume of 1% HEC, 0.25% TWEEN® 80, 0.05% antifoam (HEC/TWEEN®). The compound is dosed at doses of 15 and 30 mg/kg. Dosing is performed two times per day (BID) for 28 days of treatment. Tumor volume is monitored twice per week during the dosing period, and efficacy (tumor growth inhibition) is monitored relative to a vehicle control group (n=10 animals).
# [4] = system: 786-O human renal cell carcinoma cells; assay: 786-O xenograft model in combination with sunitinib; type: in vivo, athymic nude mice; settings: BID x 28
# Method: Female athymic nude mice are obtained from Harlan Labs at a weight of 24-26 g. […] Tumor size is monitored by caliper measurement twice per week. […] The compound is dosed orally in a 0.2 mL volume of 1% HEC, 0.25% TWEEN® 80, 0.05% antifoam (HEC/TWEEN®). […] Tumor volume is monitored twice per week and efficacy (tumor growth inhibition) is compared relative to vehicle-treated control animals. […] Statistical assessment of synergy was performed using two-way repeated measures analysis of variance on log tumor volume vs. time.
compound,measurement,setting,value
"2-[5-(2,4-Difluorophenyl)-4-[2-[[(1S)-3-methoxy-1-methyl-propyl]amino]oxazolo[5,4-b]pyridin-5-yl]-1H-imidazol-2-yl]-2-methyl-propan-1-ol, methanesulfonate [Example 2]",Tumor Growth Inhibition (%),"[1]; 1 mg/kg PO TID, Day 20",70.6%
same,Tumor Growth Inhibition (%),"[1]; 1 mg/kg PO TID, Day 23",76.6%
same,Tumor Growth Inhibition (%),"[1]; 1 mg/kg PO TID, Day 26",76%
same,Tumor Growth Inhibition (%),"[1]; 1 mg/kg PO TID, Day 29 (final)",78.3%
same,Tumor Growth Inhibition (%),"[1]; 3 mg/kg PO TID, Day 20",32.5%
same,Tumor Growth Inhibition (%),"[1]; 3 mg/kg PO TID, Day 23",47.7%
same,Tumor Growth Inhibition (%),"[1]; 3 mg/kg PO TID, Day 26",42.7%
same,Tumor Growth Inhibition (%),"[1]; 3 mg/kg PO TID, Day 29 (final)",37.7%
same,Tumor Growth Inhibition (%),"[1]; 10 mg/kg PO TID, Day 20",60%
same,Tumor Growth Inhibition (%),"[1]; 10 mg/kg PO TID, Day 23",71.2%
same,Tumor Growth Inhibition (%),"[1]; 10 mg/kg PO TID, Day 26",72.8%
same,Tumor Growth Inhibition (%),"[1]; 10 mg/kg PO TID, Day 29 (final)",74.8%
same,Mean Plasma Concentration (μM) at time (hour) post-last dose,"[2]; 1 mg/kg PO TID, 1 hour post-last dose",0.0263 µM
same,Mean Plasma Concentration (μM) at time (hour) post-last dose,"[2]; 1 mg/kg PO TID, 2 hour post-last dose",0.0146 µM
same,Mean Plasma Concentration (μM) at time (hour) post-last dose,"[2]; 3 mg/kg PO TID, 1 hour post-last dose",0.0526 µM
same,Mean Plasma Concentration (μM) at time (hour) post-last dose,"[2]; 3 mg/kg PO TID, 2 hour post-last dose",0.0604 µM
same,Mean Plasma Concentration (μM) at time (hour) post-last dose,"[2]; 3 mg/kg PO TID, 3 hour post-last dose",0.0042 µM
same,Mean Plasma Concentration (μM) at time (hour) post-last dose,"[2]; 10 mg/kg PO TID, 1 hour post-last dose",0.4952 µM
same,Mean Plasma Concentration (μM) at time (hour) post-last dose,"[2]; 10 mg/kg PO TID, 2 hour post-last dose",0.3978 µM
same,Mean Plasma Concentration (μM) at time (hour) post-last dose,"[2]; 10 mg/kg PO TID, 3 hour post-last dose",0.0243 µM
same,Mean tumor size (mm3),"[3]; 15 mpk, Day 4",101.69 mm3
same,Mean tumor size (mm3),"[3]; 15 mpk, Day 8",87.96 mm3
same,Mean tumor size (mm3),"[3]; 15 mpk, Day 11",104.9 mm3
same,Mean tumor size (mm3),"[3]; 15 mpk, Day 15",104.21 mm3
same,Mean tumor size (mm3),"[3]; 15 mpk, Day 18",120.17 mm3
same,Mean tumor size (mm3),"[3]; 15 mpk, Day 21",182.47 mm3
same,Mean tumor size (mm3),"[3]; 15 mpk, Day 25",169.53 mm3
same,Mean tumor size (mm3),"[3]; 15 mpk, Day 29",214.28 mm3
same,Mean tumor size (mm3),"[3]; 15 mpk, Day 33",326.29 mm3
same,Mean tumor size (mm3),"[3]; 15 mpk, Day 36",384.59 mm3
same,Mean tumor size (mm3),"[3]; 15 mpk, Day 43",628.46 mm3
same,Mean tumor size (mm3),"[3]; 15 mpk, Day 46",700.62 mm3
same,Mean tumor size (mm3),"[3]; 15 mpk, Day 49",937.29 mm3
same,Mean tumor size (mm3),"[3]; 15 mpk, Day 53",1138.19 mm3
same,Mean tumor size (mm3),"[3]; 30 mpk, Day 4",97.8 mm3
same,Mean tumor size (mm3),"[3]; 30 mpk, Day 8",90.78 mm3
same,Mean tumor size (mm3),"[3]; 30 mpk, Day 11",118.46 mm3
same,Mean tumor size (mm3),"[3]; 30 mpk, Day 15",95.34 mm3
same,Mean tumor size (mm3),"[3]; 30 mpk, Day 18",103.71 mm3
same,Mean tumor size (mm3),"[3]; 30 mpk, Day 21",115.16 mm3
same,Mean tumor size (mm3),"[3]; 30 mpk, Day 25",155.27 mm3
same,Mean tumor size (mm3),"[3]; 30 mpk, Day 29",154.83 mm3
same,Mean tumor size (mm3),"[3]; 30 mpk, Day 33",224.14 mm3
same,Mean tumor size (mm3),"[3]; 30 mpk, Day 36",243.32 mm3
same,Mean tumor size (mm3),"[3]; 30 mpk, Day 43",407.07 mm3
same,Mean tumor size (mm3),"[3]; 30 mpk, Day 46",527.14 mm3
same,Mean tumor size (mm3),"[3]; 30 mpk, Day 49",642.22 mm3
same,Mean tumor size (mm3),"[3]; 30 mpk, Day 53",812.48 mm3
"COCC[C@H](C)Nc1nc2ccc(-c3nc(C(C)(C)CO)[nH]c3-c3ccc(F)cc3F)nc2o1.Cl [Example 3, 2-[5-(2,4-Difluorophenyl)-4-[2-[[(1S)-3-methoxy-1-methyl-propyl]amino]oxazolo[5,4-b]pyridin-5-yl]-1H-imidazol-2-yl]-2-methyl-propan-1-ol, hydrochloride]",% Tumor Growth Inhibition,"[4]; Example 3 15 mg/kg PO, Day 17",−35.5%
same,% Tumor Growth Inhibition,"[4]; Example 3 15 mg/kg PO, Day 21",−23%
same,% Tumor Growth Inhibition,"[4]; Example 3 15 mg/kg PO, Day 24",−52.4%
same,% Tumor Growth Inhibition,"[4]; Example 3 15 mg/kg PO, Day 28",−74.1* %
same,% Tumor Growth Inhibition,"[4]; Example 3 15 mg/kg PO, Day 31",−58.8* %
CCN(CC)CCNC(=O)c1c(C)[nH]c(/C=C2\C(=O)Nc3ccc(F)cc32)c1C [Sunitinib],% Tumor Growth Inhibition,"[4]; Sunitinib 10 mg/kg PO, Day 17",−1.6%
same,% Tumor Growth Inhibition,"[4]; Sunitinib 10 mg/kg PO, Day 21",2.9%
same,% Tumor Growth Inhibition,"[4]; Sunitinib 10 mg/kg PO, Day 24",−16.3%
same,% Tumor Growth Inhibition,"[4]; Sunitinib 10 mg/kg PO, Day 28",−21.2%
same,% Tumor Growth Inhibition,"[4]; Sunitinib 20 mg/kg PO, Day 17",−55.9%
same,% Tumor Growth Inhibition,"[4]; Sunitinib 20 mg/kg PO, Day 21",31.5%
same,% Tumor Growth Inhibition,"[4]; Sunitinib 20 mg/kg PO, Day 24",18%
same,% Tumor Growth Inhibition,"[4]; Sunitinib 20 mg/kg PO, Day 28",34.5%
same,% Tumor Growth Inhibition,"[4]; Sunitinib 20 mg/kg PO, Day 31",35.4* %
